Experimental findings from patent publication US8349877B2, “Ternary fungicidal compositions comprising boscalid and chlorothalonil” (BASF SE, priority 2007, dated 2013) are described below.

The subject of assay [1] is Colleotrichum truncatum. Description: Activity against Colleotrichum truncatum in the microtiterplate test. The format is cell-based. As to conditions: 168 h, read-out: Observed efficacy.
The test system of assay [2] is Alternaria solani. As to conditions: 4 ppm; 7 days after inoculation.
Assay [3] relates to Fusarium culmorum. The assay is described as follows: Activity against Fusarium culmorum in the microtiterplate test. It is filed as cell-based. As to conditions: 0.063 ppm; 7 days after inoculation.
The test system of assay [4] is Pyricularia oryzae. The format is cell-based. As to conditions: 7 days after inoculation.
Setting [5] is: 4 ppm, 7 days after inoculation.

Structures are written as SMILES. Where two headings read alike, the source gives them in different places.

For the compound `CC1(C)CC/C(=C\c2ccc(Cl)cc2)C1(O)Cn1cncn1` (stereo not drawn) [Triticonazol, (5E)-5-[(4-chlorophenyl)methylene]-2,2-dimethyl-1-(1H-1,2,4-triazol-1-ylmethyl)cyclopentanol], in assay [1] (7 days after inoculation), the inhibition of growth at 1 ppm is 7%. Consider `COC=C(C(=O)OC)c1ccccc1COc1cccc(C(F)(F)F)n1` [Picoxystrobin, methyl 3-methoxy-2-[2-(6-trifluoromethylpyridin-2-yloxymethyl)phenyl]-acrylate], for which the inhibition of growth at 0.25 ppm in assay [1] (0.25 ppm, 7 days after inoculation) was found to be 32%. For `CC(C)(C)C(O)(CCc1ccc(Cl)cc1)Cn1cncn1` (stereo not drawn) [Tebuconazole, 1-(4-chlorophenyl)-4,4-dimethyl-3-[1,2,4]triazol-1-ylmethylpentan-3-ol], the inhibition of growth at 4 ppm in assay [1] (setting [5]) stood at 0%. For the same compound, in assay [2], the Observed efficacy was 0%.

Take `O=C1C2CC=CCC2C(=O)N1SC(Cl)(Cl)Cl` (stereo not drawn) [Captan, N-(trichloromethylthio)cyclohex-4-ene-1,2-dicarboximide]: in assay [1] (7 days after inoculation), the inhibition of growth at 1 ppm came to 49%. As to `CC(C)OC(=O)N[C@H](C(=O)N[C@H](C)c1nc2ccc(F)cc2s1)C(C)C` [Benthivalicarb, isopropyl {(S)-1-[(1R)-1-(6-fluorobenzothiazol-2-yl)-ethylcarbamoyl]-2-methylpropyl}carbamate], the inhibition of growth at 4 ppm in assay [1] is 0%. Besides, in assay [2], the Observed efficacy is 0%.

As to `CC1(C)CCC(Cc2ccc(Cl)cc2)C1(O)Cn1cncn1` (stereo not drawn) [Metconazol, 5-(4-chlorobenzyl)-2,2-dimethyl-1-[1,2,4]triazol-1-ylmethylcyclopentanol], the Observed efficacy in assay [3] amounted to 31%; in assay [4] (0.063 ppm), 0%; in assay [4] (0.25 ppm) it was 5%. As for `CO/N=C(/C1=NOCCO1)c1ccccc1Oc1ncnc(Oc2ccccc2Cl)c1F` [Fluoxastrobin, (E)-{2-[6-(2-chlorophenoxy)-5-fluoropyrimidin-4-yloxy]phenyl}(5,6-dihydro-1,4,2-dioxazin-3-yl)methanone O-methyloxime], the inhibition of growth at 1 ppm in assay [1] (7 days after inoculation) came out at 32%.

As for `Fc1ccc([C@]2(Cn3cncn3)O[C@H]2c2ccccc2Cl)cc1` (racemic) [Epoxiconazol, (2RS,3SR)-1-[3-(2-chlorophenyl)-2,3-epoxy-2-(4-fluorophenyl)propyl]-1H-1,2,4-triazole], the Observed efficacy in assay [4] (0.063 ppm) is 4%; in assay [4] (1 ppm), 40%. Turning to `CC(C)NC(=O)N1CC(=O)N(c2cc(Cl)cc(Cl)c2)C1=O` [Iprodion, N-isopropyl-3-(3,5-dichlorophenyl)-2,4-dioxoimidazolidine-1-carboxamide], the inhibition of growth at 1 ppm in assay [1] (7 days after inoculation) came out at 7%. Regarding `Cc1cc(C)nc(Nc2ccccc2)n1` [Pyrimethanil, 4,6-dimethylpyrimidin-2-ylphenylamine], the inhibition of growth at 4 ppm in assay [1] (setting [5]) is 7%.
